The text below walks through data of paper PMC9920246, “Entinostat-Bortezomib Hybrids against Multiple Myeloma” (Molecules, 2023).

Read-outs that look alike come from different tables or passages of the source.

The test system of assay [1] is 3D co-culture spheroids containing RPMI 8226 cells and mesenchymal stem cells (MSC) in a 5:1 ratio. The assay is described as follows: Antiproliferative assay in 3D co-culture spheroids (CellTiter-Glo 3D, 48 h). Type of assay: cell-based, human. The following applies: RPMI 8226 + MSC 5:1 spheroids, mean ± SD, n = 3. The method, then: The multiple myeloma human plasma cells RPMI 8226 were purchased from American Type Culture Collection (ATCC, Manassas, VA, USA) and cultured in RPMI 1640 medium (Gibco, Paisley, UK) supplemented with 50 µg/mL streptomycin sulfate, 50 U/mL penicillin G sodium salt (Gibco, Grand Island, NY, USA) and 10% fetal bovine serum (FBS) (Biowest, Nuaillé, France). […] Human MSC from the bone marrow were purchased from PromoCell and were cultured in Mesenchymal Stem Cell Growth Medium 2 (PromoCell, Heidelberg, Germany) supplemented with 100 μg/mL streptomycin sulfate and 100 U/mL penicillin G sodium salt.
RPMI 8226 cells and MSC were mixed in a 5:1 ratio. The cell mixture was centrifuged, and medium containing 20% collagen I (Gibco) adjusted to pH 7 was added to the cell pellet. Five μL drops were plated in each well of an ice-cold 96-well ultra-low attachment U-bottom plate (Corning, Kennebunk, MA, USA) and the plate was incubated for 30 min at 37 °C and 5% CO2 atmosphere. After the incubation, 200 μL of RPMI 1640 medium (Gibco) supplemented with 50 µg/mL streptomycin sulfate, 50 U/mL penicillin G sodium salt (Gibco) and 10% FBS (Biowest) was added to each well. The 3D spheroids were formed after 48 h.
RPMI 8226 and RPMI 8226/BTZ100 cells were seeded in 96-well plates (Costar, Kennebunk, MA, USA) at a density of 15,000 cells per well and directly treated for 72 h with the various compounds using increasing concentrations (0.31–2000 nM). […] Following the treatment, 100 μL of medium was carefully removed from each well and collagenase (1.5 μL of a 100 mg/mL solution, Sigma) was added. The plate was shaken at 37 °C for 10 min at 350 rpm. Then, 100 μL of CellTiter-Glo 3D reagent (Promega, Fitchburg, WI, USA) was added to each well. The plate was incubated for 5 min at 37 °C under agitation at 250 rpm, followed by 25 min at room temperature without agitation. Finally, the luminescence was measured using a Cytation 3 plate reader (BioTek). The percentage of cell proliferation and calculation of the IC50 value were determined as previously described. Each compound was tested in triplicate in three independent experiments.
In general terms: ATP-based viability assays read luminescence as a measure of living cells.

The subject of another assay is RPMI 8226 cells. The assay is described as follows: Antiproliferative assay (XTT, 72 h). In kind it is cell-based, human. The conditions noted are these: for IC50: RPMI 8226 cells, 72 h, XTT, mean ± SD, n = 3.
A short description of assay [2]: Drug combination of Ent and BTZ, antiproliferative effect (Combenefit, CompuSyn). In kind it is cell-based. The conditions noted are these: read-out: IC50 in drug combination experiment. How it is done: Combinations were evaluated using Combenefit data analysis.
Statistical analysis was performed in GraphPad Prism 9 (GraphPad) using one-way ANOVA for the proteasome inhibition assay. Combenefit (Cancer Research UK Cambridge Institute, Cambridge, UK) and CompuSyn software were used for drug combination analyses. The CI was calculated through the Chou-Talalay method using Compusyn. Data are expressed as mean ± standard deviation (SD).

A further assay relates to RPMI 8226/BTZ100 cells. Nature of the assay: cells. In kind it is cell-based, human. The conditions noted are these: for IC50: read-out: IC50 Value Antiproliferative Activity RPMI 8226/BTZ100.
Another assay concerns HDAC. The assay is described as follows: HDAC inhibitory activity in RPMI 8226 cells (MAL substrate, UHPLC-MS). Type of assay: cell-based, human. The following applies: 10 µM, 8 h. The method, then:
RPMI 8226 cells were seeded in 96-well plates (Costar) at a density of 15,000 cells per well in 25 µL of medium containing the HDAC substrate N-(4-methyl-7-aminocoumarinyl)-Nα-(t-butoxycarbonyl)-Nω-acetyllysineamide (21 µM, MAL, Sigma). The cells were directly treated with the compounds at 10 µM or with Ent (0.4–250 µM) for 8 h to obtain a final volume of 50 µL. […] Following the incubation, the reaction was stopped by adding 10 µL of 6X RIPA buffer, supplemented with protease inhibitor (Sigma). Then, 160 µL of cold acetonitrile were added and the plate was placed for 10 min at −80 °C. The plate was centrifuged at 5000× g for 10 min at 4 °C, and the supernatant was transferred into a UHPLC-adapted 96-well plate (Nunc 96-well plate conical bottom, ThermoFisher) and sealed. The substrate (MAL) and its deacetylated product (dMAL) were measured using a UHPLC-MS method as previously described. The percentage of HDAC inhibition is given by 100 − [(tested sample × 100/control sample)], and the dose-response curve of Ent was established.

The next assay deals with T1, 26S proteasome (Homo sapiens, UniProt P28074).
T1 sequence (P28074 60-263): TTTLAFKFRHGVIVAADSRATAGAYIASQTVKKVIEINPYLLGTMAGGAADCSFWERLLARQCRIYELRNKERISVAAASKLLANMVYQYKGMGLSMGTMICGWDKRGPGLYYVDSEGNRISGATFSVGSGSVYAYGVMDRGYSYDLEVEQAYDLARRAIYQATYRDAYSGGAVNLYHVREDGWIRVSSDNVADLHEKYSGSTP
Nature of the assay: Proteasome inhibitory activity (Suc-LLVY-amc) in RPMI 8226 cell lysate. In kind it is biochemical. The method, then:
RPMI 8226 cells (1 × 10^6 cells/mL) were collected, centrifuged, and washed twice with cold PBS (Gibco). The supernatant was discarded, and 200 μL of ice-cold lysis buffer (NP40 cell lysis buffer (Invitrogen, Eugene, OR, USA), supplemented with 1 mM PMSF (Sigma) and protease inhibitor cocktail (Sigma), was added to the pellet. Cells were kept on ice for 30 min and vortexed every 10 min. Samples were then centrifuged at 4 °C for 10 min at 16,000× g. Supernatant containing the proteins was collected. Protein quantification was performed using the Coomassie (Bradford) Protein Assay Kit (ThermoFisher, Waltham, MA, USA) following the manufacturer instructions. In each well of a 96-well black plate (ThermoFisher), 10 µg of proteins were mixed with assay buffer (50 mM Tris-HCl, pH 7.5, 40 mM KCl, 5 mM MgCl2, 0.5 mM ATP, 1 mM DTT, 0.5 mg/mL BSA) in 180 µL total volume. […] The plate was then incubated for 30 min at 37 °C. After incubation, the reaction was started by adding the fluorometric peptide substrate Suc-LLVY-amc (Bio-Techne, Minneapolis, MN, USA) at a final concentration of 100 µM, except for the blank wells. Following 1 h incubation at 37 °C in the dark, the fluorescence signal was red (excitation: 380 nm, emission: 440–460 nm) using a Cytation 3 plate reader (BioTek). The percentage of 26S proteasome activity was measured by comparing the fluorescence of the sample treated with the vehicle control wells and multiplied by 100. The IC50 value was calculated as mentioned above, and each compound was tested in triplicate in three independent experiments.

The mark [3] stands for this setting: 26S proteasome in RPMI 8226 cell lysate, 30 min preincubation, Suc-LLVY-amc 100 µM, mean ± SD, n = 3; read-out: IC50 Value PI Activity.

In the case of `CC(C)C[C@H](NC(=O)[C@H](Cc1ccccc1)NC(=O)c1cnccn1)B(O)O` [BTZ, bortezomib], the IC50 is 6.4 ± 1.6 nM in assay [1] (Homo sapiens); 2.1 ± 0.4 nM in the assay with RPMI 8226 cells (Homo sapiens); 3.3 nM in assay [2]; 245 ± 11.1 nM in the assay with RPMI 8226/BTZ100 cells (Homo sapiens, RPMI-8226, 72 h). In addition, the “Increased resistance (RPMI 8226/BTZ100 vs. RPMI 8226)” value with RPMI 8226/BTZ100 cells was 116.8 fold.

Consider `CC(C)C[C@H](NC(=O)[C@@H](Cc1ccccc1)NC(=O)c1cnc(C(=O)Nc2ccccc2N)cn1)B1OC2CC3CC(C3(C)C)[C@]2(C)O1` (stereo partly drawn) [Compound 3, N^2-(2-aminophenyl)-N^5-((2R)-1-(((1R)-3-methyl-1-((3aS)-3a,5,5-trimethylhexahydro-4,6-methanobenzo[d][1,3,2]dioxaborol-2-yl)butyl)amino)-1-oxo-3-phenylpropan-2-yl)pyrazine-2,5-dicarboxamide], for which the IC50 in assay [1] (Homo sapiens) worked out at 13.1 ± 6.9 nM; with RPMI 8226 cells (Homo sapiens), 9.5 ± 1.4 nM; with RPMI 8226/BTZ100 cells (Homo sapiens, RPMI-8226, 72 h) it was 158 ± 15.8 nM; at 26S proteasome (setting [3]), 27.2 ± 6.2 nM. For the same molecule, in the assay with HDAC, the “Inhibition of HDAC activity” value turned out to be 33%. The “Increased resistance (RPMI 8226/BTZ100 vs. RPMI 8226)” value with RPMI 8226/BTZ100 cells (ratio of IC50 in resistant vs. parental cells) is reported as 16.6 fold.

Take `CC(C)C[C@H](NC(=O)[C@@H](Cc1ccccc1)NC(=O)Cc1ccc(C(=O)Nc2ccc(F)cc2N)cc1)B1OC2CC3CC(C3(C)C)[C@@]2(C)O1` (stereo partly drawn) [Compound 7, N-(2-amino-4-fluorophenyl)-4-(2-(((2R)-1-(((1R)-3-methyl-1-((3aR)-3a,5,5-trimethyl-hexahydro-4,6-methanobenzo[d][1,3,2]dioxaborol-2-yl)butyl)amino)-1-oxo-3-phenylpropan-2-yl)amino)-2-oxoethyl)benzamide]: the IC50 in assay [1] (Homo sapiens) turned out to be 89.3 ± 13.6 nM; in the assay with RPMI 8226 cells (Homo sapiens), 31.4 ± 1.7 nM; in the assay with RPMI 8226/BTZ100 cells (Homo sapiens, RPMI-8226, 72 h), 831 ± 139 nM; at 26S proteasome (setting [3]), 7.2 ± 1.7 nM. The “Inhibition of HDAC activity” value in the assay with HDAC came to 37%.

As for `CC(C)C[C@H](NC(=O)[C@@H](Cc1ccc(N(CCCl)CCCl)cc1)NC(=O)c1cnc(C(=O)Nc2ccccc2N)cn1)B1OC2CC3CC(C3(C)C)[C@]2(C)O1` (stereo partly drawn) [Compound 11, N^2-(2-aminophenyl)-N^5-((2R)-3-(4-(bis(2-chloroethyl)amino)phenyl)-1-(((1R)-3-methyl-1-((3aS)-3a,5,5-trimethylhexahydro-4,6-methanobenzo[d][1,3,2]dioxaborol-2-yl)butyl)amino)-1-oxopropan-2-yl)pyrazine-2,5-dicarboxamide], the IC50 in assay [1] is 39.9 ± 12.1 nM; with RPMI 8226 cells it was 22.9 ± 2.6 nM; in the assay on RPMI 8226/BTZ100 cells (RPMI 8226 cells resistant to BTZ, 72 h, XTT, mean ± SD, n = 3), 462 ± 107 nM; at 26S proteasome (read-out: IC50 Value PI Activity; 26S proteasome in RPMI 8226 cell lysate, 30 min preincubation, Suc-LLVY-amc 100 µM, mean ± SD, n = 3) it was greater than 50 nM. Further, the “Fold less active than compound 3 in RPMI 8226 cells” value in the assay on RPMI 8226 cells (compared to compound 3) is roughly 2.4 times. The “Inhibition of HDAC activity” value in the assay on HDAC worked out at 25%.
